Reference: the METLIN SMRT retention time set (Domingo-Almenara et al. 2019)

Experiment: gradient 5% acetonitrile 3 min, to 50% in 2 min, to 85% in 15 min, held 3 min, 100 µL/min
Details: column: Zorbax Extend-C18 2.1 x 50 mm; eluents: water / acetonitrile, 0.1% formic acid
Summary of the method: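 In both positive and negative ionization mode, a quadrupole time-of-flight mass spectrometer coupled to HPLC analyzed pure standards run in mixtures of ~100 molecules. The Zorbax Extend-C18 column (2.1 × 50 mm, 1.8 μm) was operated at 100 μL/min with water and acetonitrile, each containing 0.1% formic acid. The dead volume was 40 μL and the dwell volume 900 μL. Retention time came from adduct peaks that were computationally picked and individually inspected by hand.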

SMILES	RP-LC retention time [s]
Cc1cc2c(cc1S(=O)(=O)N1CCCC1C(=O)NCC(C)c1ccccc1)OCC(=O)N2 (centres undefined)	799
COc1ccc(-c2noc(C(C)NC(C)=O)n2)cc1 (centres undefined)	680
O=C(Nc1ccsc1-c1nnc(C2CC2)o1)c1ccsc1	1170
CC1=NS(=O)(=O)N(C)C=C1C(=O)OCc1nc(Cc2cccc(C)c2)no1	957
Cc1ccccc1CNC(=O)C1(C)CCCN(C(=O)Nc2ccccc2C(F)(F)F)C1 (centres undefined)	1010
Cc1cc(C)cc(NC(=O)Cc2nnc(-c3cnccn3)o2)c1	729
CS(=O)(=O)N1CC(C(=O)Nc2ccccc2)C2(CCCCC2)C1 (centres undefined)	875
CCOC(=O)Cc1ccc(NC(=O)N2CCSc3nc(C)cc(C)c32)cc1	735
COC(=O)c1c(C)[nH]c(C(=O)N2CCC(CC(=O)NCCC(C)N3CCCC3)CC2)c1C (centres undefined)	578
CNC(=O)c1cc2c(s1)N(CC1CC1)CCCC2	889
O=C(Nc1ccc2c(c1)OCCO2)c1nn(CC2CC2)c2c1CNCC2	568
COc1cc(C)c(Sc2cnc(NC(=O)c3ccc(CNC(C)C(C)(C)C)cc3)s2)cc1C(=O)N1CCN(C(C)=O)CC1 (centres undefined)	762
Cc1ccc(C)c(NC(=O)NCCc2cn(C)c3ncccc23)c1	704
Cc1ccccc1-n1ccn(Cc2nc(-c3cccc(F)c3)no2)c(=O)c1=O	837
CC(C)(C)C(=O)Nc1ccc(N2CCC(N3CCCCC3)CC2)cc1C(=O)O	615
Cn1nc(CNC(=O)c2cccs2)c2ccccc21	764
CCN1C(=O)COc2ccc(-c3noc(CNC(=O)Cc4ccc(Cl)cc4)n3)cc21	859
CC(C)CNC(=O)CCc1nc2ccccc2n(CC(=O)N2CCCc3ccccc32)c1=O	990
CCOc1ccc(-c2nc(-c3cccc(-c4ccn[nH]4)c3)no2)cc1	999
COC1CCC12CCN(C(=O)CC(C)C)CC2 (centres undefined)	810
Cc1ccc2nc(C(=O)N3CCN(c4ccccn4)CC3)cn2c1	538
COc1ccc(Cl)cc1NC(=O)N1CCCC(C)(C(=O)NCc2ccc(F)cc2)C1 (centres undefined)	1020
Cc1ccc(NC(=O)CSc2nc3nc(C)cc(C)n3n2)cc1	726
CC(C)NC(=O)c1ccc(OCC2CCN(C(=O)c3cccs3)CC2)cc1	757
CCOc1ccccc1N1CCN(C(=O)Cn2ccc3c(c(C)nn3-c3ccccc3)c2=O)CC1	844

SMILES	RP-LC retention time [s]
Cn1c(C(=O)NCc2ccccc2)cc2sccc21	892
Cc1cc(C)cc(S(=O)(=O)N2CCN(CCc3cn(C)c4ncccc34)CC2)c1	652
CC1CCCN(C(=O)c2cn(-c3cc(-c4nc(C(C)(C)C)no4)ccn3)cn2)C1 (centres undefined)	1040
Cc1ccc(CNc2cc(-n3ccnc3)ncn2)cc1	648
Cc1cc2n(n1)CCC(=O)N2CCCC(=O)NCc1ccc(C)o1	644
O=C(Cc1c(F)cccc1Cl)NC1CCN(c2cc(-c3ccc(F)cc3)[nH]n2)C1 (centres undefined)	760
CCCN1C(=O)COc2ccc(-c3noc(C4CC(=O)N(c5cccc(Cl)c5)C4)n3)cc21 (centres undefined)	1080
O=S(=O)(c1ccc2nncn2c1)N(Cc1cccc(F)c1)c1cccc(F)c1	851
O=C(NCC1(CO)CC1)NC1CCCCC1	621
O=c1n(Cc2ccc(F)cc2)nc2ccc(S(=O)(=O)N3CCc4ccccc4C3)cn12	983
CC(C)n1nnc2cc(S(=O)(=O)N3CCCC(C(=O)N4CCCCCC4)C3)ccc21 (centres undefined)	886
Cc1ccccc1-c1noc(Cn2cnc3c(cnn3-c3ccc(Br)cc3)c2=O)n1	1200
COc1ccc(CCN2CC(=O)N3Cc4[nH]c5ccccc5c4C[C@H]3C2=O)cc1OC	761
COc1ccccc1-c1nnc(-c2cc(S(=O)(=O)N3CCC(C)CC3)ccc2Cl)o1	1160
C=CCNC(=O)C1CCCN(S(=O)(=O)c2ccc(OC)c(OC)c2)C1 (centres undefined)	700
Cc1ccc(CNC(=O)Cn2cc(C(=O)N3CCCC3)c(=O)c3ccc(C)nc32)cc1	694
O=C(Nc1ccc(F)cc1Cl)C1CCc2nc(N3CCOCC3)ncc2C1 (centres undefined)	793
NC1=NC(=O)/C(=C/c2ccccc2OCC(=O)Nc2ccc(F)cc2)S1	660
CCSc1nc2ccc(NS(=O)(=O)c3ccc(F)c(C)c3)cc2s1	1060
CCn1c(=O)c(N2CCC(NC(=O)NCc3ccccc3)CC2)nc2cccnc21	826
CCOC(=O)CC(=O)Nc1ccc(-c2nc(-c3cc(C)ccc3C)co2)cc1	1110
CCC(C)NC(=O)c1ccc2c(c1)CCCN2S(=O)(=O)CC (centres undefined)	781
COC(=O)c1ccc(S(=O)(=O)N2CCN(S(=O)(=O)C3CC3)CC2)cc1	878
COc1ccc(NC(=O)N2CCN(c3cc(-c4ccc(OC)c(OC)c4)ncn3)CC2)cc1	620
N#Cc1ccc(CN2C[C@@H]3C(=O)N(CCN4CCc5ccccc5C4)C(=O)[C@@H]3C2)cc1	618

Next, values leading:

RP-LC retention time [s]	SMILES
854	CCc1ccccc1NC(=O)Cn1c(=O)c(CCC(=O)NCC(C)C)nc2ccccc21
928	COC(=O)Cn1nc(-c2nc(-c3ccc(C)cc3)no2)ccc1=O
972	CCc1ccc(NC(=O)Cc2c(C)nn(-c3nc(-c4ccc(Cl)cc4)cs3)c2C)cc1
705	CN(C)C(=O)c1ccc2c(c1)N(CC(=O)Nc1ccccc1Cl)C(=O)CS2
1120	CC(=O)N1CCc2[nH]c3ccc(C(=O)NCc4ccc(N5CCCC5)cc4)cc3c2C1
1030	CC(C)N1C(=O)C(C)(C(=O)NCc2cccc(Br)c2)Oc2cccnc21 (centres undefined)
652	CS(=O)(=O)N1CCN(C(=O)CCCn2nc(-c3ccc(F)cc3)ccc2=O)CC1
1260	COc1nc2ccccc2nc1N1CCCC(C(=O)Nc2ccc(Br)c(C)c2C)C1 (centres undefined)
729	COCC(=O)Nc1ccc(-c2nc3cccnc3s2)cc1C
646	CCc1cc(=O)n(CC(=O)Nc2ccc(OC)c(OC)c2)c(N2CCOCC2)n1
733	CSc1cccc(NC(=O)c2[nH]c3cc(C)sc3c2CN2CCOCC2)c1
751	CN1c2ccc(F)cc2C(=O)NC12CCN(C(=O)c1ccccc1Cl)CC2
799	COC(=O)c1cc(S(=O)(=O)N2CCCC2C(=O)NCc2ccc(F)cc2)cn1C (centres undefined)
946	COc1ccc(Cn2nc3c(S(=O)(=O)N4CCc5ccccc5C4)cccn3c2=O)cc1
688	O=C(Cn1nc2n(c1=O)CCCC2)Nc1ccc(Cl)cc1
616	Cn1c(=O)c(N2CCN(C(=O)c3ccc(F)cc3Cl)CC2)nc2ccncc21
579	NC(=O)c1cc[nH]c1C1CCCN(C(=O)c2cscn2)C1 (centres undefined)
626	O=C(c1csc(-c2ccc(N3CCOCC3)nc2)n1)N1CCOCC1
1050	COc1ccc(NS(=O)(=O)c2c(C)nn(-c3ccc(-c4ccc(C)c(C)c4)nn3)c2C)cc1OC
946	CCc1ccc(C2=C(C)C(N3CCCN(C(=O)C4CCCC4)CC3)=NS2(=O)=O)cc1

RP-LC retention time [s]	SMILES
636	Cc1cccc(N2CCN(Cc3nc4nc(C)cc(N5CCOCC5)n4n3)CC2)c1
572	Cc1ccc2c(Nc3ccc(CC(=O)O)cc3)c(C(=O)N3CCCC3)cnc2n1
660	Cc1cc(N2CCOCC2)nc(N2CCN(C(=O)c3ccc(Br)cc3)CC2)n1
712	CN(C(=O)CSc1nnc(-c2cn(C)nc2-c2ccccc2)n1C)c1ccccc1
750	COC(=O)c1ncn2c1C(=O)N(c1ccc(C)c(C)c1)C(C)(C(=O)NC1CCCC1)C2 (centres undefined)
798	COCCCNC(=O)NC(C(=O)N1CCc2ccccc21)c1ccccc1 (centres undefined)
565	Cc1ccn2cc(C(=O)NCCN3CCc4ccccc4C3)nc2c1
626	O=C(NC1CC1)c1cc(=O)[nH]c2c(Cl)cccc12
757	Cn1c(=O)c2c(NC(=O)c3ccco3)ccnc2n(C)c1=O
702	CCC(C(=O)N1CCN(c2cc(=O)n(C)c(=O)n2C)CC1)N1C(=O)COc2ccccc21 (centres undefined)
618	Cc1ccc(Cl)cc1NC(=O)CSc1nnc2c3cc(-c4ccc(F)cc4)nn3ccn12
615	CCc1cccc(N2C(=O)c3c(C(=O)OC)ncn3CC2(C)C(=O)NC2CCCC2)c1 (centres undefined)
710	CC(C)NC(=O)c1cc(C(C)(C)C)[nH]n1
587	O=C(CN1CCN(Cc2nc(-c3ccc(N4CCCCC4)nc3)no2)CC1)N1CCCC1
639	O=C(Nc1c(-c2ccc(F)cc2)nc2ccccn12)c1ccccc1F
652	Cc1sc2ccn(CC(C)C)c(=O)c2c1C(=O)NCc1ccc(N(C)C)cc1
847	Cc1cc(NC(=O)C2CCN(C(=O)c3cnn(-c4ccccc4)n3)CC2)no1
654	Cc1nn(CC(=O)NCCN2CCOCC2)c(=O)c2c(-n3cccc3)n(-c3ccc(F)cc3)nc12
611	O=C(c1cc(Cl)ccc1F)N1CCC(c2nc(C3CC3)n[nH]2)CC1
